Laboratory results: article PMC3618674 (Brain research, 2012)
Like-named read-outs stand apart in the source and are kept apart here.

Columns and labels:
L-DOPA methylation [1] = assay type: in vivo, rat; settings: rats
L-DOPA methylation [2] = test: Animal experiment III: L-DOPA methylation in dopamine-depleted; assay type: in vivo, rat
[3] = tested on: HT22 mouse hippocampal neuronal cells; test: Glutamate-induced oxidative cell death, MTT cell viability; assay type: cell-based; settings: 5 mM glutamate, 24 h, co-treatment
[4] = tested on: HT22 mouse hippocampal neuronal cells; test: Glutamate-induced intracellular ROS accumulation; assay type: cell-based; settings: 5 mM glutamate
NF-κB = test: NF-κB-Luc reporter transcriptional activity in glutamate-treated HT22 cells; assay type: cell-based, mouse; settings: HT22 cells transfected with NF-κB-Luc; 5 mM glutamate, 40 μM (+)-catechin, 8 h
[5] = tested on: kainic acid-induced hippocampal neurodegeneration; test: Animal experiment IV: kainic acid-induced rat hippocampal injury; assay type: in vivo; settings: rats
[6] = tested on: 6-hydroxydopamine-induced neuronal damage; test: 6-hydroxydopamine-induced neuronal damage model; settings: data not shown
L-DOPA methylation [7] = settings: rats; for effect on plasma 3-OMD levels: 400 mg/kg i.p. 2 h before L-DOPA/carbidopa 20/5 mg/kg; for effect on striatal 3-OMD levels / effect on striatal dopamine levels: 400 mg/kg i.p., striatum at 6 h after L-DOPA/carbidopa 20/5 mg/kg
[8] = target: T1, human liver catechol-O-methyltransferase (COMT) (Homo sapiens, UniProt P21964); test: in vitro O-methylation of L-DOPA catalyzed by human liver cytosolic COMT; assay type: biochemical
T1 sequence (P21964 1-221 isoform P21964-2): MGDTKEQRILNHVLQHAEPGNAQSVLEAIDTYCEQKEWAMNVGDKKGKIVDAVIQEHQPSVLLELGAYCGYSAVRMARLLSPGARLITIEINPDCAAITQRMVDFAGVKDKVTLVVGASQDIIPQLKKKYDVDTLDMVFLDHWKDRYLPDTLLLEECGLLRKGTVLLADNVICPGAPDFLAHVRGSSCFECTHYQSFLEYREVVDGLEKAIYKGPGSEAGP

in vivo = settings: rat, ip, 400 mg/kg
[9] = tested on: 6-hydroxydopamine-induced neurotoxicity; settings: ref Leaver et al., 2009; cited from earlier work
[10] = reserpinized rats, co-treatment with L-DOPA/carbidopa 20/20 mg/kg
[11] = rats, reserpine 5 mg/kg i.p. 18-20 h before

## Oc1cc(O)c2c(c1)O[C@H](c1ccc(O)c(O)c1)[C@@H](O)C2 [(+)-catechin]
L-DOPA methylation [1]; (+)-catechin 400 mg/kg 2 h before L-DOPA/carbidopa 20/20 mg/kg, vs control
  time required to reach maximal L-DOPA plasma concentration: modestly shifted to the right
L-DOPA methylation [1]; L-DOPA/carbidopa 20/20 mg/kg
  effect on striatal 3-OMD levels: markedly reduced
  effect on striatal dopamine levels: not significantly affected
L-DOPA methylation [2]; [10]
  effect on striatal 3-OMD levels: markedly reduced
  effect on striatal dopamine levels: restored to levels comparable to those in normal rats
[3]
  effect on glutamate-induced cell death (cell viability): abrogated cell death in a concentration-dependent manner
[4]
  effect on glutamate-induced accumulation of intracellular ROS: reduced
NF-κB
  effect on transcriptional activity of NF-κB: significantly attenuated
[5]; (+)-catechin 400 mg/kg 30 min before i.c.v. kainic acid, 24 h, CA3
  kainic acid-induced increase in GFAP expression in astrocytes: reduced
[5]; (+)-catechin 30 min before i.c.v. kainic acid
  effect on kainic acid-induced seizure behavior: no appreciable behavioral differences
[6]
  protective effect in 6-hydroxydopamine-induced neuronal damage model: did not show any appreciable protective effect
L-DOPA methylation [7]
  effect on plasma 3-OMD levels: significantly reduced
  effect on striatal 3-OMD levels: significantly reduced
  effect on striatal dopamine levels: only slightly changed

## Oc1cc(O)c2c(c1)O[C@H](c1ccc(O)c(O)c1)[C@H](O)C2 [(−)-epicatechin]
[8]
  IC50: 10.7 ± 6.7 µM
In vivo
  concentration at 30 min: 88.6 ± 39.2 µM
L-DOPA methylation [7]
  effect on plasma 3-OMD levels: did not have a similar effect
  effect on striatal 3-OMD levels: no significant change
  effect on striatal dopamine levels: no significant change

## O=C(O[C@@H]1Cc2c(O)cc(O)cc2O[C@@H]1c1cc(O)c(O)c(O)c1)c1cc(O)c(O)c(O)c1 [EGCG, (−)-epigallocatechin-3-gallate]
[9]
  effect in 6-hydroxydopamine-induced neurotoxicity model: ineffective

## O=c1c(O)c(-c2ccc(O)c(O)c2)oc2cc(O)cc(O)c12 [quercetin]
[8]
  IC50: 1.9 ± 0.4 µM
In vivo
  concentration at 30 min: 12.6 ± 0.1 µM
L-DOPA methylation [7]
  effect on plasma 3-OMD levels: did not have a similar effect
  effect on striatal 3-OMD levels: no significant change
  effect on striatal dopamine levels: no significant change

## COC(=O)[C@H]1[C@H]2C[C@@H]3c4[nH]c5cc(OC)ccc5c4CCN3C[C@H]2C[C@@H](OC(=O)c2cc(OC)c(OC)c(OC)c2)[C@@H]1OC [reserpine, reference compound]
L-DOPA methylation [2]; [11]
  decrease of striatal dopamine levels compared to normal control animals: over 80%
  striatal dopamine levels relative to non-reserpinized control rats: approximately 20%
